Results: patent publication US10897901B2, “Herbicidal composition” (FMC Corporation, priority 2007, dated 2021)

What was measured:
Assay type in all cases: in vivo
[1] = test system: Yellow Nutsedge (Cyperus esculentus); test: Example 2 post-emergent turf plot test, nutsedge
Method: (§1) The experimental design used randomized plots with post-emergent treatment and three replications per test trial. The size of each experimental plot was 4 feet by 6 feet. The application of each test composition was performed with pressurized back-pack sprayers, calibrated to spray 200 gallons per acre. Test compositions containing sulfentrazone (DISMISS™ Turf Herbicide), quinclorac, (FACET® 75 DF herbicide) or a mixture of sulfentrazone and quinclorac in a one to three ratio, prepared as described above, were diluted with water to provide the appropriate test rate concentrations.
The control of weeds was evaluated in each experimental plot from 1 to 27 days after treatment (DAT) of each test rate. The results, shown as an average of the replications, were compared with results observed in untreated control plots in the same trials.

crabgrass (Digitaria sp) = test: Example 4 post-emergence greenhouse pot test, crabgrass
Method: (§2) Test compositions containing sulfentrazone (75 DF formulation), quniclorac, (DRIVE® 75 DF Herbicide) or mixtures of sulfentrazone and quinclorac at ratios of 1:1 to 1:5, were diluted with water to provide the appropriate test rate concentrations. A nonionic surfactant (0.25%) was added to each test solution. The test weeds include crabgrass (Digitaria sp), Chickweed (Stellaria media), Hemp Sesbania (Sesbania exaltata), Kochia (Kochia scoparia), Ivyleaf Morningglory (Ipomoea hederacea), Redroot Pigweed (Amaranthus retroflexus) and yellow nutsedge (Cyperus esculentusi).
(§3) For post-emergence testing, three disposable 3 inch square pots for each rate of application of each herbicide were filled with a soil, comprised of peat moss, vermiculite, bark ash, pine bark, limestone and a wetting agent, to which 8 to 10 seeds were planted. The pots were placed in a greenhouse and watered daily, thus allowing the seeds to germinate and the foliage to develop for 22 days, 3 months for Kochia.
(§4) Pots designated for treatment were placed on a conveyor belt and the conveyor belt fed under a spray nozzle mounted about ten inches above the foliage. The spray of herbicidal solution was commenced and once stabilized; the pots were passed under the spray at a speed to receive a coverage equivalent of 30 gallons per acre. The application rates are those shown in Table 4 below for the individual herbicidal solutions and the mixture of sulfentrazone and quinclorac. The post-emergence pots were immediately placed in the green-house and not watered until 24 hours after treatment with the test solution. Thereafter they were regularly watered at ground level. The control of weeds was evaluated in each experimental test from 2 to 20 days after treatment (DAT). The results, shown as an average of the replications, were compared with results observed in untreated control pots in the same tests.
(§5) Percent control was determined by a method similar to the 0 to 100 rating system disclosed in “Research Methods in Weed Science,” 2nd ed., B. Truelove, Ed.; Southern Weed Science Society; Auburn University, Auburn, Ala., 1977.

[2] = test system: Blackseed Plantain (Plantago rugelii); test: Example 1 post-emergent turf plot test, plantain
Method: as §1, with “quniclorac,” for “quinclorac,”, “1:3” for “one to three”
The control of weeds was evaluated in each experimental plot from 7 to 41 days after treatment (DAT) of each test rate. The results, shown as an average of the replications, were compared with results observed in untreated control plots in the same trials.

[3] = test system: Ivyleaf Morningglory (Ipomoea hederacea); test: Example 4 post-emergence greenhouse pot test, morningglory
Method: as §2, §3, §4, §5

[4] = test system: Chickweed (Stellaria media); test: Example 4 post-emergence greenhouse pot test, chickweed
Method: as §2, §3, §4, §5

Cc1nn(-c2cc(NS(C)(=O)=O)c(Cl)cc2Cl)c(=O)n1C(F)F [A, N-[2,4-dichloro-5-[4-(difluoromethyl)-4,5-dihydro-3-methyl-5-oxo-1H-1,2,4-triazol-1-yl]phenyl]methanesulfonamide]
Percent Control ([1]; 0.57 lb ai/acre, 7 DAT): 100%
Percent Control ([1]; 0.57 lb ai/acre, 14 DAT): 100%
Percent Control ([1]; 0.57 lb ai/acre, 21 DAT): 100%
Percent Control (crabgrass (Digitaria sp); 0.25 lb ai/acre, 2 DAT): 10%
Percent Control (crabgrass (Digitaria sp); 0.25 lb ai/acre, 7 DAT): 10%
Percent Control (crabgrass (Digitaria sp); 0.25 lb ai/acre, 14 DAT): 5%
Percent Control (crabgrass (Digitaria sp); 0.25 lb ai/acre, 20 DAT): 5%
Percent Control ([2]; 0.57 lb ai/acre, 7 DAT): 83%
Percent Control ([2]; 0.57 lb ai/acre, 14 DAT): 88%
Percent Control ([2]; 0.57 lb ai/acre, 21 DAT): 100%
Percent Control ([2]; 0.57 lb ai/acre, 28 DAT): 100%
Percent Control ([3]; 0.25 lb ai/acre, 2 DAT): 60%
Percent Control ([3]; 0.25 lb ai/acre, 7 DAT): 80%
Percent Control ([3]; 0.25 lb ai/acre, 14 DAT): 90%
Percent Control ([3]; 0.25 lb ai/acre, 20 DAT): 99%
Percent Control ([4]; 0.25 lb ai/acre, 2 DAT): 30%
Percent Control ([4]; 0.25 lb ai/acre, 7 DAT): 30%
Percent Control ([4]; 0.25 lb ai/acre, 14 DAT): 10%
Percent Control ([4]; 0.25 lb ai/acre, 20 DAT): 0%

O=C(O)c1c(Cl)ccc2cc(Cl)cnc12 [B, 3,7-dichloro-8-quinolinecarboxylic acid]
Percent Control ([1]; 0.75 lb ai/acre, 7 DAT): 83%
Percent Control ([1]; 0.75 lb ai/acre, 14 DAT): 54%
Percent Control ([1]; 0.75 lb ai/acre, 21 DAT): 37%
Percent Control (crabgrass (Digitaria sp); 0.25 lb ai/acre, 2 DAT): 10%
Percent Control (crabgrass (Digitaria sp); 0.25 lb ai/acre, 7 DAT): 20%
Percent Control (crabgrass (Digitaria sp); 0.25 lb ai/acre, 14 DAT): 20%
Percent Control (crabgrass (Digitaria sp); 0.25 lb ai/acre, 20 DAT): 10%
Percent Control (crabgrass (Digitaria sp); 0.5 lb ai/acre, 2 DAT): 0%
Percent Control (crabgrass (Digitaria sp); 0.5 lb ai/acre, 7 DAT): 10%
Percent Control (crabgrass (Digitaria sp); 0.5 lb ai/acre, 14 DAT): 60%
Percent Control (crabgrass (Digitaria sp); 0.5 lb ai/acre, 20 DAT): 50%
Percent Control (crabgrass (Digitaria sp); 0.75 lb ai/acre, 2 DAT): 0%
Percent Control (crabgrass (Digitaria sp); 0.75 lb ai/acre, 7 DAT): 0%
Percent Control (crabgrass (Digitaria sp); 0.75 lb ai/acre, 14 DAT): 60%
Percent Control (crabgrass (Digitaria sp); 0.75 lb ai/acre, 20 DAT): 50%
Percent Control (crabgrass (Digitaria sp); 1.0 lb ai/acre, 2 DAT): 0%
Percent Control (crabgrass (Digitaria sp); 1.0 lb ai/acre, 7 DAT): 10%
Percent Control (crabgrass (Digitaria sp); 1.0 lb ai/acre, 14 DAT): 60%
Percent Control (crabgrass (Digitaria sp); 1.0 lb ai/acre, 20 DAT): 70%
Percent Control (crabgrass (Digitaria sp); 1.25 lb ai/acre, 2 DAT): 0%
Percent Control (crabgrass (Digitaria sp); 1.25 lb ai/acre, 7 DAT): 10%
Percent Control (crabgrass (Digitaria sp); 1.25 lb ai/acre, 14 DAT): 60%
Percent Control (crabgrass (Digitaria sp); 1.25 lb ai/acre, 20 DAT): 70%
Percent Control ([2]; 0.75 lb ai/acre, 7 DAT): 100%
Percent Control ([2]; 0.75 lb ai/acre, 14 DAT): 100%
Percent Control ([2]; 0.75 lb ai/acre, 21 DAT): 100%
Percent Control ([2]; 0.75 lb ai/acre, 28 DAT): 100%
Percent Control ([3]; 0.25 lb ai/acre, 2 DAT): 20%
Percent Control ([3]; 0.25 lb ai/acre, 7 DAT): 25%
Percent Control ([3]; 0.25 lb ai/acre, 14 DAT): 60%
Percent Control ([3]; 0.25 lb ai/acre, 20 DAT): 70%
Percent Control ([3]; 0.5 lb ai/acre, 2 DAT): 20%
Percent Control ([3]; 0.5 lb ai/acre, 7 DAT): 25%
Percent Control ([3]; 0.5 lb ai/acre, 14 DAT): 40%
Percent Control ([3]; 0.5 lb ai/acre, 20 DAT): 50%
Percent Control ([3]; 0.75 lb ai/acre, 2 DAT): 20%
Percent Control ([3]; 0.75 lb ai/acre, 7 DAT): 25%
Percent Control ([3]; 0.75 lb ai/acre, 14 DAT): 40%
Percent Control ([3]; 0.75 lb ai/acre, 20 DAT): 50%
Percent Control ([3]; 1.0 lb ai/acre, 2 DAT): 20%
Percent Control ([3]; 1.0 lb ai/acre, 7 DAT): 25%
Percent Control ([3]; 1.0 lb ai/acre, 14 DAT): 50%
Percent Control ([3]; 1.0 lb ai/acre, 20 DAT): 70%
Percent Control ([3]; 1.25 lb ai/acre, 2 DAT): 20%
Percent Control ([3]; 1.25 lb ai/acre, 7 DAT): 25%
Percent Control ([3]; 1.25 lb ai/acre, 14 DAT): 40%
Percent Control ([3]; 1.25 lb ai/acre, 20 DAT): 50%
Percent Control ([4]; 0.25 lb ai/acre, 2 DAT): 0%
Percent Control ([4]; 0.25 lb ai/acre, 7 DAT): 0%
Percent Control ([4]; 0.25 lb ai/acre, 14 DAT): 0%
Percent Control ([4]; 0.25 lb ai/acre, 20 DAT): 0%
Percent Control ([4]; 0.5 lb ai/acre, 2 DAT): 0%
Percent Control ([4]; 0.5 lb ai/acre, 7 DAT): 0%
Percent Control ([4]; 0.5 lb ai/acre, 14 DAT): 0%
Percent Control ([4]; 0.5 lb ai/acre, 20 DAT): 0%
Percent Control ([4]; 0.75 lb ai/acre, 2 DAT): 0%
Percent Control ([4]; 0.75 lb ai/acre, 7 DAT): 0%
Percent Control ([4]; 0.75 lb ai/acre, 14 DAT): 0%
Percent Control ([4]; 0.75 lb ai/acre, 20 DAT): 0%
Percent Control ([4]; 1.0 lb ai/acre, 2 DAT): 0%
Percent Control ([4]; 1.0 lb ai/acre, 7 DAT): 5%
Percent Control ([4]; 1.0 lb ai/acre, 14 DAT): 5%
Percent Control ([4]; 1.0 lb ai/acre, 20 DAT): 5%
Percent Control ([4]; 1.25 lb ai/acre, 2 DAT): 5%
Percent Control ([4]; 1.25 lb ai/acre, 7 DAT): 5%
Percent Control ([4]; 1.25 lb ai/acre, 14 DAT): 2%
Percent Control ([4]; 1.25 lb ai/acre, 20 DAT): 5%
